Test results from patent publication US20220408756A1, “POULTRY FEED AND DRINKING WATER COMPOSITION COMPRISING MONOMETHYLSILANETRIOL” (RXW Group nv, priority 2019, published 2022).

Experiments:
[1] = system: broiler chicken; assay: Bone strength measurement (tibia); assay type: in vivo; conditions: D41
Protocol: (§1) A study was conducted to investigate the effect of silicium supplementation in drinking water of broiler chicken on their performance, locomotive system, skin healing and bone formation. Silicium was supplemented in 2 treatment groups. A third group was used as control and not treated with silicium. Silicium-monomethylsilanetriol (Si-MMST) was administrated at 2 different concentrations. More specific, Si-MMST was added to drinking water at 0.3 mg/l and 1.48 mg/l. These refer to the final silicium concentrations as measured by ICP-AES. Birds were moreover reared on humidified bedding material to simulate bad housing conditions and induce mild locomotive and skin complications. During the study, performance was assessed by weighing birds and monitoring feed intake on specific time points, separating the study in a starter, grower and finisher period. Additionally, mobility of the birds was assessed at the end of the grower (D33) and finisher period (D41) by means of gait scoring (Kestin et al., 1992). At the end of the trial (D41), footpad and chest lesions, femur head necrosis and tibia dyschondroplasy were assessed by qualified veterinarians, which also isolated 1 tibia per bird for bone strength and composition analysis. The main results of this study are summarizes in table 1.
(§2) On D41, one tibia of each bird was collected for analysis. Initially, we selected 2 birds in each pen (first 2 numbers/pen) to obtain 50 samples for analysis of bone weight, fracture force (N), maximum force (N), stiffness (N/mm), bone dry matter (%), bone ash (%), phosphorus content (%), calcium content (%), copper content (mg/kg), manganese content (mg/kg) and zinc content (mg/kg). The results of bone strength measurement per treatment group are presented in table 9 and analysis on bone composition is represented in table 10.

[2] = system: broiler chicken; assay: Footpad and chest lesion scores; assay type: in vivo; design: Footpad lesion score (mean) / Chest lesion score (mean): scale not given here; conditions: D41
Protocol: as §1
More specific, the average footpad lesion score decreased from 1.31 in the UC to 0.9 in the 0.3 mg/l Si-MMS treatment group.

[3] = system: broiler chicken; assay: Bone composition measurements (tibia); assay type: in vivo; conditions: for Bone ash / Bone calcium content / Bone copper content / Bone dry matter / Bone phosphorus content / Bone zinc content: D41; for Bone manganese content: D41, values below detection limit (<5) set to 2.5
Protocol: as §1, §2

[4] = Stability in water; assay type: physicochemical
Protocol: This organosilicon compound is highly bioavailable. […] MMST can advantageously be used without stabilizers in silicon equivalent concentrations up to 300 mg/l. The stability of MMST is dependent on concentration and declines at higher concentrations. The stability can be enhanced by the use of stabilizing agents.

[5] = system: broiler chicken; assay: Animal body weight and daily weight gain, broiler study with silicium in drinking water; assay type: in vivo; conditions: for BW D0 (LSM): day 0; for BW D14 (LSM): day 14; for BW D33 (LSM): day 33
Protocol: as §1, with “More specific, Si-MMST was added to drinking water at 0.3 mg/l and 1.48 mg/l.” left out
Average daily weight gain (DWG) for example in starter period (D0-D14) was calculated, using following formula: […]
Similar formula was used to calculate the DWG for all the experimental periods. Table 2 and 3 respectively show the body weight (BW) and daily weight gain (DWG) for the different time points or experimental periods.

[6] = system: broiler chicken; assay: Feed consumption and feed conversion; assay type: in vivo
Protocol: as §1
The total feed weight was measured per pen when switching between feed compositions. The feed weight (“Feed IN”) was measured and recorded on D0, D14, D33 and D41. Two pens during grower period and all pens during finisher period were supplemented with extra feed to enable at libitum feeding. This extra feed was also weighed and recorded as “Feed IN”. The remaining feed in each pen (“Feed OUT”) was weighed and recorded on D14, D33 and D41. The feed intake (=difference in feed weight at beginning and the end of the experimental period) was calculated for each group per study period. The average daily feed intake (DFI) was calculated for the experimental period using the feed intake data by using following formula: […]
The Feed Conversion Ratio (FCR) was calculated for each of the above mentioned study periods, using following formula: […]

[7] = system: broiler chicken; assay: Femur head necrosis and tibia dyschondroplasy scores; assay type: in vivo; design: Femur head necrosis score (mean): scale not given here; conditions: D41; for Tibia dyschondroplasy score (mean) / Tibia dyschondroplasy, number of birds with score 0 / Tibia dyschondroplasy, number of birds with score 1 / Tibia dyschondroplasy, number of birds with score 2: unilateral, scale 0 to 2
Protocol: as §1
As 1 of the 2 tibia needs to be isolated unimpaired, tibia dyschondroplasy could only be scored unilateral. Therefore the tibia dyschondroplasy scoring ranges from 0 to 2 instead of 0 to 5.
On D41, all birds were scored for femur head necrosis and tibia dyschondroplasy as described in table 8. No significant differences could be observed between the UC and silicium treated groups based on femur head necrosis and tibia dyschondroplasy.

[8] = system: broiler chicken; assay: Gait scoring (Kestin et al., 1992); assay type: in vivo; conditions: day 33
Protocol: as §1, with “The main results of this study are summarizes in table 1.” left out
On D33 and D41, mobility of the birds was evaluated individually by using the gait scoring chart as described by Kestin et al., 1992. […]

[9] = 0.3 mg/l Si-MMST in drinking water
[10] = 1.48 mg/l Si-MMST in drinking water

C[Si](O)(O)O [Si-MMST, monomethylsilanetriol]
Bone weight (mean) [1, 9]: 12.3 g
Fracture force (mean) [1, 9]: 360.7 N
Maximum force (mean) [1, 9]: 372.5 N
Stiffness (mean) [1, 9]: 148.8 N/mm
Bone weight (mean) [1, 10]: 13.2 g
Fracture force (mean) [1, 10]: 400.6 N
Maximum force (mean) [1, 10]: 409.6 N
Stiffness (mean) [1, 10]: 164.3 N/mm
Chest lesion score (mean) [2, 9]: 0.02
Chest lesion, number of birds with score 0 [2, 9]: 48
Chest lesion, number of birds with score 1 [2, 9]: 1
Footpad lesion score (mean) [2, 9]: 0.9
Footpad lesion, number of birds with score 0 [2, 9]: 19
Footpad lesion, number of birds with score 1 [2, 9]: 16
Footpad lesion, number of birds with score 2 [2, 9]: 14
Chest lesion score (mean) [2, 10]: 0.00
Chest lesion, number of birds with score 0 [2, 10]: 45
Chest lesion, number of birds with score 1 [2, 10]: 0
Footpad lesion score (mean) [2, 10]: 1.04
Footpad lesion, number of birds with score 0 [2, 10]: 8
Footpad lesion, number of birds with score 1 [2, 10]: 27
Footpad lesion, number of birds with score 2 [2, 10]: 10
Bone ash [3, 9]: 22.6%
Bone calcium content [3, 9]: 35.3%
Bone copper content [3, 9]: 3.3 mg/kg
Bone dry matter [3, 9]: 49.0%
Bone phosphorus content [3, 9]: 17.8%
Bone zinc content [3, 9]: 326.9 mg/kg
Bone manganese content [3, 9]: 7.4 mg/kg
Bone ash [3, 10]: 22.9%
Bone calcium content [3, 10]: 35.1%
Bone copper content [3, 10]: 3.2 mg/kg
Bone dry matter [3, 10]: 49.1%
Bone phosphorus content [3, 10]: 17.6%
Bone zinc content [3, 10]: 340.3 mg/kg
Bone manganese content [3, 10]: 8.2 mg/kg
silicon equivalent concentration usable without stabilizers ([4]; in water, without stabilizers): up to 300 mg/l
stability in water ([4]; low concentrations): sufficiently stable
BW D0 (LSM) ([5]; 0.3 mg/l Si-MMST in drinking water (Si-MMST 1)): 48 g
DWG D0-14 (LSM) [5, 9]: 25.6 g
DWG D0-41 (LSM) ([5]; 0.3 mg/l Si-MMST in drinking water, D0-41): 63.1 g
DWG D14-33 (LSM) [5, 9]: 70.6 g
DWG D33-41 (LSM) [5, 9]: 111.1 g
BW D14 (LSM) [5, 9]: 407 g
BW D33 (LSM) [5, 9]: 1748 g
BW D41 (LSM) ([5]; 0.3 mg/l Si-MMST in drinking water, day 41): 2636 g
DWG over the complete study period (D0-D41) versus control ([5]; 1.433 mg/l Si-MMST in drinking water, D0-D41): significantly increased
body weight on day 41 versus control ([5]; 1.433 mg/l Si-MMST in drinking water, day 41): significantly increased
BW D0 (LSM) ([5]; 1.48 mg/l Si-MMST in drinking water (Si-MMST 2)): 48 g
DWG D0-14 (LSM) [5, 10]: 25.8 g
DWG D14-33 (LSM) [5, 10]: 77.6 g
DWG D33-41 (LSM) [5, 10]: 111.1 g
BW D14 (LSM) [5, 10]: 410 g
BW D33 (LSM) [5, 10]: 1883 g
BW on day 41 ([5]; 1.48 mg/l Si-MMST in drinking water, day 41, UC 2.622 kg): 2.775 kg
DFI D0-14 (mean) [6, 9]: 24.9 g
FCR D0-14 (mean) [6, 9]: 1.0
DFI D0-41 (mean) [6, 9]: 117.4 g
FCR D0-41 (mean) [6, 9]: 1.9
DFI D14-33 (mean) [6, 9]: 141.2 g
FCR D14-33 (mean) [6, 9]: 2.0
DFI D33-41 (mean) [6, 9]: 207.0 g
FCR D33-41 (mean) [6, 9]: 1.9
DFI D0-14 (mean) [6, 10]: 25.0 g
FCR D0-14 (mean) [6, 10]: 1.0
DFI D0-41 (mean) [6, 10]: 114.4 g
FCR D0-41 (mean) [6, 10]: 1.8
DFI D14-33 (mean) [6, 10]: 132.7 g
FCR D14-33 (mean) [6, 10]: 1.7
DFI D33-41 (mean) [6, 10]: 218.5 g
FCR D33-41 (mean) [6, 10]: 2.1
daily feed intake versus control ([6]; MMST supplemented treatment groups, all study periods and D0-D41): higher than the control
Femur head necrosis score (mean) [7, 9]: 1.29
Femur head necrosis, number of birds with score 0 [7, 9]: 10
Femur head necrosis, number of birds with score 1 [7, 9]: 15
Femur head necrosis, number of birds with score 2 [7, 9]: 24
Femur head necrosis, number of birds with score 3 [7, 9]: 0
Femur head necrosis, number of birds with score 5 [7, 9]: 0
Tibia dyschondroplasy score (mean) [7, 9]: 0.10
Tibia dyschondroplasy, number of birds with score 0 [7, 9]: 44
Tibia dyschondroplasy, number of birds with score 1 [7, 9]: 5
Tibia dyschondroplasy, number of birds with score 2 [7, 9]: 0
Femur head necrosis score (mean) [7, 10]: 1.2
Femur head necrosis, number of birds with score 0 [7, 10]: 15
Femur head necrosis, number of birds with score 1 [7, 10]: 7
Femur head necrosis, number of birds with score 2 [7, 10]: 22
Femur head necrosis, number of birds with score 3 [7, 10]: 1
Femur head necrosis, number of birds with score 5 [7, 10]: 0
Tibia dyschondroplasy score (mean) [7, 10]: 0.09
Tibia dyschondroplasy, number of birds with score 0 [7, 10]: 41
Tibia dyschondroplasy, number of birds with score 1 [7, 10]: 4
Tibia dyschondroplasy, number of birds with score 2 [7, 10]: 0
Gait score D33 (mean) [8, 9]: 0.26
Gait score D33 (mean) [8, 10]: 0.27
